One test deals with Protein kinase C (PKC). In words: Inhibitory constant against PKC. The test is classed as protein assay, Oryctolagus cuniculus.
The next test has as its target Casein kinase II (Homo sapiens, UniProt P19784+P67870+P68400). In words: Inhibitory constant against CK2. The test is classed as protein-complex assay, Oryctolagus cuniculus.
Test [1] addresses Myosin light chain kinase, smooth muscle (Gallus gallus, UniProt P11799). The experiment in a line: Inhibitory constant against MLCK.
A short description of test [2]: Inhibitory constant against CK1. Details: species or system Rattus norvegicus.
Test [3] in a line: Inhibitory constant against cGPK (PKG). Further details: species or system Sus scrofa.
In test [4] the target is cAMP-dependent protein kinase alpha-catalytic subunit (Oryctolagus cuniculus, UniProt Q95J97). In words: Inhibitory constant against cAPK (PKA).

Chain of Myosin light chain kinase, smooth muscle (P11799 whole entry): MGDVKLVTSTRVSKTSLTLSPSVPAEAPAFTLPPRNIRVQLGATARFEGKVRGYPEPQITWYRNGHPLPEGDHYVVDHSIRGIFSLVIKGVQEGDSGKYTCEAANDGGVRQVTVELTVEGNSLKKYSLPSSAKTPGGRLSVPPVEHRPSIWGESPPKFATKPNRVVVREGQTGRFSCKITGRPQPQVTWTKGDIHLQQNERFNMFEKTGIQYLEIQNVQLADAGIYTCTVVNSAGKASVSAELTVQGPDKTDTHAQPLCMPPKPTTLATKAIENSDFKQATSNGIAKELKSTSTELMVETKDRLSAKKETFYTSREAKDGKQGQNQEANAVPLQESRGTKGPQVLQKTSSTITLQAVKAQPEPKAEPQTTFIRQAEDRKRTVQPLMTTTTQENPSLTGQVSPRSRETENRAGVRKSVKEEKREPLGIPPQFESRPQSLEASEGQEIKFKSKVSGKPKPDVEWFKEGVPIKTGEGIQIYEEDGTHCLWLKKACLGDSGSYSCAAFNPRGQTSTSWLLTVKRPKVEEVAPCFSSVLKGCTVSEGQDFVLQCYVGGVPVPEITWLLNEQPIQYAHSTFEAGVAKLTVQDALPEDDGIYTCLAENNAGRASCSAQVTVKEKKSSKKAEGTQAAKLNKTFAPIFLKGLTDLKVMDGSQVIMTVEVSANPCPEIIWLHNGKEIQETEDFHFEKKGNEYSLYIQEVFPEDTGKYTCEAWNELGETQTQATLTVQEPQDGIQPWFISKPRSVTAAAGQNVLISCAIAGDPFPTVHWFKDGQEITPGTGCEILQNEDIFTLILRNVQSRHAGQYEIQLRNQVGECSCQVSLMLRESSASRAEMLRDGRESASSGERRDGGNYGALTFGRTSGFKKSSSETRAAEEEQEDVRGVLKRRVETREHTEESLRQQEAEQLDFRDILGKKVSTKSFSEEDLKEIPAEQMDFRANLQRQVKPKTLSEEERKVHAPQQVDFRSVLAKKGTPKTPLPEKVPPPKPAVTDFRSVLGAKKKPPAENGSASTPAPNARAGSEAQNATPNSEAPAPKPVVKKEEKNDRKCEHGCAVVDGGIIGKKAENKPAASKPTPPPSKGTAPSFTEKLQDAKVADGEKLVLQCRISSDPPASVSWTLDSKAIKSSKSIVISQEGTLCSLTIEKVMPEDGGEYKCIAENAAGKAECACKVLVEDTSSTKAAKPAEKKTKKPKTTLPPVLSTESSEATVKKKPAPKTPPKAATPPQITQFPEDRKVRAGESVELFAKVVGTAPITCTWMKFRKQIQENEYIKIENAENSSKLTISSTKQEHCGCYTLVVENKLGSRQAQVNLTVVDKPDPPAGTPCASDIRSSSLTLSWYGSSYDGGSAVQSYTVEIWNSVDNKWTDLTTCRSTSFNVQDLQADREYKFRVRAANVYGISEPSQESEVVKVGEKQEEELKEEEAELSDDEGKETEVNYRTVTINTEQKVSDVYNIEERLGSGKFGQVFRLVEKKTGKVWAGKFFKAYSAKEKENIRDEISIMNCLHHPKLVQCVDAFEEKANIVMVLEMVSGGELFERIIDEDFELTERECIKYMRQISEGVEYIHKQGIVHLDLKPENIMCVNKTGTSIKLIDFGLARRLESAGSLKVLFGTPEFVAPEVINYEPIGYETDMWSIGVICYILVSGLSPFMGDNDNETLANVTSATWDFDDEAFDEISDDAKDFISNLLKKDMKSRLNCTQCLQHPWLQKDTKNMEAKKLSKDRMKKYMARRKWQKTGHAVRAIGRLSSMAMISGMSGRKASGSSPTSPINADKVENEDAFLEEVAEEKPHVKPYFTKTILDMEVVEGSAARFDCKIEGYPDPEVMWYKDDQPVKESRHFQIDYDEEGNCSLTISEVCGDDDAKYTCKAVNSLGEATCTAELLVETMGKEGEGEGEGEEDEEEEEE
Chain of Casein kinase II (P67870 whole entry): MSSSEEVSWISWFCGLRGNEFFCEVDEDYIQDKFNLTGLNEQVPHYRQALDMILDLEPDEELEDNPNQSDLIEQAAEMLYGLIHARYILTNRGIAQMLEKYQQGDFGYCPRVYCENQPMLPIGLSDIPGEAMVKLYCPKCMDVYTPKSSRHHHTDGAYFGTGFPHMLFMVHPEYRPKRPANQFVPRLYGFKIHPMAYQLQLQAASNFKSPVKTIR
Chain of Casein kinase II (P68400 whole entry): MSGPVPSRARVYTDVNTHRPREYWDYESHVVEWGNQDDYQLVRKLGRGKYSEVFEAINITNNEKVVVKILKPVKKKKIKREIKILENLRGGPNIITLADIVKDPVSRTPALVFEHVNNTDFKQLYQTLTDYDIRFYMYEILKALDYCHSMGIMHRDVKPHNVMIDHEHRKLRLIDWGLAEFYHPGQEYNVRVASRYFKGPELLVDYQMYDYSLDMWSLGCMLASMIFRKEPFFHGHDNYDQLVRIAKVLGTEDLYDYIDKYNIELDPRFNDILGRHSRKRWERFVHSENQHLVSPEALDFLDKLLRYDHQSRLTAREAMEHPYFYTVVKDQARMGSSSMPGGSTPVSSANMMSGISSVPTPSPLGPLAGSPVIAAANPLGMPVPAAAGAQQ
Chain of Casein kinase II (P19784 whole entry): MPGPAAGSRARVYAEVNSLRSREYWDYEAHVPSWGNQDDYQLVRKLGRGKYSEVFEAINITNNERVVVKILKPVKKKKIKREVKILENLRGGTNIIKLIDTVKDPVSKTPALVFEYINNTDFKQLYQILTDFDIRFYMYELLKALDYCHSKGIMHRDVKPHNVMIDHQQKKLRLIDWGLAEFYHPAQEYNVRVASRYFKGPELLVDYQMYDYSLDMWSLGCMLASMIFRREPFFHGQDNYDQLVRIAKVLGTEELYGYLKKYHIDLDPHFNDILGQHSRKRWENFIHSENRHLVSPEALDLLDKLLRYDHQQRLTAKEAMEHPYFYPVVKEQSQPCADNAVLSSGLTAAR

Broadly, the Ki is the equilibrium dissociation constant of an inhibitor or competing ligand from its target. Take `CNCCNS(=O)(=O)c1cccc2cnccc12`: the Ki on Protein kinase C (PKC) stood at 15 µM; at Casein kinase II, 950 µM; in test [1], 68 µM; in test [2], 133 µM; in test [3], 0.48 µM; in test [4], 1.2 µM.

Consider `C[C@H]1CNCCN1S(=O)(=O)c1cccc2cnccc12`, for which the Ki at Protein kinase C (PKC) worked out at 6 µM; on Casein kinase II, 780 µM; in test [1] it was 97 µM; in test [2], 100 µM; in test [3] it was 5.8 µM.

On to `O=S(=O)(NCCNC/C=C/c1ccc(Br)cc1)c1cccc2cnccc12`, for which the inhibition constant Ki in test [1] worked out at 28.3 µM.

These data come from ChEMBL document CHEMBL1150971, “Crystal structures of catalytic subunit of cAMP-dependent protein kinase in complex with isoquinolinesulfonyl protein kinase inhibitors H7, H8, and H89. Structural implications for selectivity” (J Biol Chem, 1996).
